Assays:
Experiment in all cases: area over the GR curve, 72 h; higher = more effect;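 further: Dye Drop or Deep Dye Drop imaging of viable cells in 384-well plates (Hoechst nuclei, LIVE/DEAD dye), nine half-log doses, GR normalized to DMSO controls and time-zero plates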
BT549 = tested on: BT549
EVSAT = tested on: EVSAT
HCC1954 = tested on: HCC1954
MCF12A = tested on: MCF12A
MDAMB175VII = tested on: MDAMB175VII
MDAMB231 = tested on: MDAMB231
MDAMB436 = tested on: MDAMB436
MDAMB453 = tested on: MDAMB453
PDXHCI002 = tested on: PDXHCI002
SUM159 = tested on: SUM159
T47D = tested on: T47D
UACC812 = tested on: UACC812

| SMILES | area over the GR curve (BT549) [GR] | area over the GR curve (EVSAT) [GR] | area over the GR curve (HCC1954) [GR] | area over the GR curve (MCF12A) [GR] | area over the GR curve (MDAMB175VII) [GR] | area over the GR curve (MDAMB231) [GR] | area over the GR curve (MDAMB436) [GR] | area over the GR curve (MDAMB453) [GR] | area over the GR curve (PDXHCI002) [GR] | area over the GR curve (SUM159) [GR] | area over the GR curve (T47D) [GR] | area over the GR curve (UACC812) [GR] |
| --- | --- | --- | --- | --- | --- | --- | --- | --- | --- | --- | --- | --- |
| COc1ccc2c(c1)[C@]1(C[C@H]1c1ccc3c(/C=C/c4ccc(CN5C[C@@H](C)O[C@@H](C)C5)cc4)n[nH]c3c1)C(=O)N2 | 0.889 | 0.531 | 0.995 | 0.499 | 0.589 | 0.765 | 0.768 | 0.537 | 0.489 | 0.629 | 0.79 | 0.524 |
| COc1cccc(OCCCN)c1-c1cc(Nc2cnc(C#N)cn2)n[nH]1 | 1.4 | 0.0022 | 1.21 | 0.589 | 0.245 | 1.09 | 0.545 | 0.843 | 0.045 | 0.533 | 0.18 | 0.0047 |
| CC(=O)Nc1cccc(-n2c(=O)n(C3CC3)c(=O)c3c(Nc4ccc(I)cc4F)n(C)c(=O)c(C)c32)c1 (max 1 µM) | 0.129 | 0.0263 | 0.401 | 0.531 | 0.938 | 0.722 | 0.182 | 0.279 | 0.2 | 0.347 | 0.213 | 0.686 |
| CCc1cnn2c(NCc3ccc[n+]([O-])c3)cc(N3CCCC[C@H]3CCO)nc12 (max 1 µM) | 0.591 | 0.0948 | 0.629 | 0.424 | 0.607 | 0.663 | 0.483 | 0.578 | 0.584 | 0.465 | 0.47 | 0.151 |
| CC(=O)c1c(C)c2cnc(Nc3ccc(N4CCNCC4)cn3)nc2n(C2CCCC2)c1=O (max 3.162 µM) | -0.0495 | 0.141 | 0.176 | 0.0837 | 0.763 | 0.345 | -0.0424 | 0.437 | 0.273 | 0.186 | 0.45 | 0.609 |
| CCc1cncnc1N1CCN(Cc2nc3ccc(C(F)(F)F)cc3[nH]2)CC1 (max 10 µM) | -0.0132 | 0.0249 | -0.0456 | -0.0039 | 0.314 | 0.0105 | 0.0903 | -0.0403 | -0.045 | 0.0106 | 0.122 | 0.275 |
| CCCCOc1c(C(=O)c2c(F)cc(C)cc2F)c[nH]c2nncc1-2 (max 10 µM) | 0.94 | 0.322 | 0.835 | 0.272 | 0.787 | 0.334 | 0.355 | 0.384 | 0.108 | 0.466 | 0.649 | 0.886 |
| CCN1CCN(Cc2ccc(Nc3ncc(F)c(-c4cc(F)c5nc(C)n(C(C)C)c5c4)n3)nc2)CC1 (max 10 µM) | 0.127 | 0.324 | 0.458 | 0.169 | 0.901 | 0.675 | 0.187 | 0.85 | 0.764 | 0.372 | 0.766 | 1.04 |
| CNc1nc(-c2ccc3c(N)n[nH]c3c2)cc(N2C[C@@H](C(=O)NC3CCCCC3)CC[C@H]2C)n1 (max 10 µM) | 0.0789 | 0.257 | 0.0806 | 0.0618 | 0.59 | 0.149 | 0.0007 | 0.266 | -0.0573 | 0.106 | 0.394 | 0.367 |
| CO[C@@H](C)Cn1c(=O)n(C)c2cnc3ccc(-c4cncc(C(C)(C)O)c4)cc3c21 (max 10 µM) | 0.765 | 0.795 | 0.822 | 0.476 | 1.32 | 0.607 | 0.372 | 0.851 | 0.228 | 0.727 | 0.894 | 1.03 |
| Cc1nn(C)c(COc2ccc(N3CCN(S(=O)(=O)N(C)C)CC3)cc2)c1-c1cccc2c(CCCOc3cccc4ccccc34)c(C(=O)O)n(CCN3CCOCC3)c12 (max 10 µM) | 0.0083 | 0.0097 | -0.0351 | -0.0165 | 0.0271 | 0.0519 | 0.014 | -0.0756 | -0.05 | -0.0068 | 0.0143 | 0.0654 |
| CN(C)CC[C@H](CSc1ccccc1)Nc1ccc(S(=O)(=O)NC(=O)c2ccc(N3CCN(Cc4ccccc4-c4ccc(Cl)cc4)CC3)cc2)cc1[N+](=O)[O-] [ABT-737] (max 10 µM) | -0.0258 | 0.0258 | 0.027 | 0.0052 | 0.0499 | 0.162 | -0.0008 | -0.0061 | 0.0548 | 0.0034 | -0.0166 | 0.276 |
| C=CCn1c(=O)c2cnc(Nc3ccc(N4CCN(C)CC4)cc3)nc2n1-c1cccc(C(C)(C)O)n1 [AZD1775] (max 10 µM) | 0.446 | 0.228 | 0.295 | 0.255 | 0.587 | 0.606 | 0.497 | 0.563 | 0.483 | 0.253 | 0.113 | 0.34 |
| CNC(=O)c1cccc(-c2ccc3c(N4CCOC[C@@H]4C)nc(N4CCOC[C@@H]4C)nc3n2)c1 [AZD2014] (max 10 µM) | 0.491 | 0.75 | 0.568 | 0.529 | 1.35 | 0.405 | 0.363 | 0.692 | 0.0467 | 0.481 | 0.959 | 1.13 |
| NC1(C(=O)N[C@@H](CCO)c2ccc(Cl)cc2)CCN(c2nc[nH]c3nccc2-3)CC1 [AZD5363] (max 10 µM) | 0.211 | 0.728 | 0.23 | 0.142 | 0.622 | -0.0246 | 0.104 | 0.234 | -0.085 | 0.177 | 0.623 | 0.2 |

Source: the supplement of paper PMC9663587
